For 31 compounds, IC50 results are on record in patent US8846928B2 (Portola Pharmaceuticals, Inc., priority 2010, dated 2014).

The test addresses T1, full length active recombinant SYK enzyme (Homo sapiens, UniProt P43405).
T1 construct: full length active recombinant SYK enzyme (Millipore, Calif.); purchased Millipore
The experiment in a line: Inhibition of Syk tyrosine phosphorylation activity (LANCE TR-FRET kinase assay). Type of test: biochemical. The protocol: Inhibition of Syk Tyrosine Phosphorylation Activity
Potency of candidate molecules for inhibiting Syk tyrosine phosphorylation activity is assessed by measuring the ability of a test compound to inhibit Syk-mediated tyrosine phosphorylation of a Syk-specific substrate.
SYK tyrosine phosphorylation activity is measured using the LANCE™ Technology developed by Perkin Elmer Life and Analytical Sciences (Boston, Mass.). LANCE™ refers to homogeneous time resolved fluorometry applications using techniques such as time-resolved fluorescence resonance energy transfer assay (TR-FRET) (see generally for procedures in Perkin Elmer Application Note—How to Optimize a Tyrosine Kinase Assay Using Time Resolved Fluorescence-Based LANCE Detection, wwww.perkinelmer.com/lifesciences). The assay principle involves detection of a phosphorylated substrate using energy transfer from a phosphospecific europium-labeled antibody to streptavidin-allophycocyanin as an acceptor.
To test the ability of candidate molecules to inhibit SYK tyrosine phosphorylation activity, molecules are reconstituted in 30% DMSO and serially diluted 1:3 with the final dilution containing DMSO in the absence of the candidate molecule. The final DMSO concentration in the assay is 3%. Kinase assays are performed as a two part reaction. […] The second reaction involves termination of the kinase reaction and the simultaneous addition of the detection reagents—europium-labeled anti-phosphotyrosine reagent (Eu-W1024-PY100, Perkin Elmer, Boston, Mass.) and Streptavidin-Allophycocyanin detection reagent (SA-APC, Prozyme, Calif.). The kinase reaction is performed in a black U-bottom 96-well microtitre plate. The final reaction volume is 50 μL and contains a final concentration of 1 nM active SYK enzyme, 550 nM SYK-substrate, and 100 μM ATP diluted in a buffer containing 50 mM Tris pH 7.5, 5 mM MgCl2, and 1 mM DTT. The reaction is allowed to proceed for 1 hour at room temperature. The quench buffer contains 100 mM Tris pH 7.5, 300 mM NaCl2, 20 mM EDTA, 0.02% Brij35, and 0.5% BSA. The detection reagents are added to the reaction mixture at the following dilutions-1:500 for Eu-W1024-PY100 and 1:250 for SA-APC. The kinase reaction is terminated by the addition of 50 μL quench buffer containing the detection reagents. The detection is allowed to proceed for 1 hr at room temperature. Detection of the phosphorylated substrate in the absence and presence of inhibitors is measured in the TR-FRET instrument, Analyst HT (Molecular Probes, Sunnyvale, Calif.) and the condition for measurements are set up using CriterionHost Release 2.0 (Molecular Probes, Sunnyvale, Calif.). The settings used are a follows: excitation 360 nm, emission 665-7.5 nm, beam splitter 350 nm 50/50, flash 100 pulses, delay 60 us, integration 400 us, z-height 2 mm. […] IC50s were derived by non-linear regression analysis. […]
For orientation: In TR-FRET formats the signal depends on donor and acceptor labels being close together.
As a reminder, the IC50 is the concentration needed to halve the response being measured. Consider `CC[C@H](N)CNc1ccc(C(N)=O)c(Nc2cc(C)ns2)c1` [Example 30, (S)-4-(2-aminobutylamino)-2-(3-methylisothiazol-5-ylamino)benzamide], for which the IC50 was in the range of 100 to 1000 nM.

`Cc1cc(Nc2cc(NC[C@H](C)N)ccc2C(N)=O)sn1` [Example 31, (S)-4-(2-aminopropylamino)-2-(3-methylisothiazol-5-ylamino)benzamide]: the IC50 fell in the range of 10 to 100 nM.

With `Cc1cc(Nc2cc(NC[C@@H](N)CC(C)C)ccc2C(N)=O)sn1` [Example 32, (S)-4-(2-amino-4-methylpentylamino)-2-(3-methylisothiazol-5-ylamino)benzamide], the half-inhibitory concentration (IC50) was in the range of 100 to 1000 nM.

For `CC[C@@H](Nc1ccc(C(N)=O)c(Nc2cc(C)ns2)c1)C(N)=O` [Example 33, (R)-4-(1-amino-1-oxobutan-2-ylamino)-2-(3-methylisothiazol-5-ylamino)benzamide], the IC50 was in the range of 10 to 100 nM.

For `Cc1cc(Nc2cc(N[C@@H](C(N)=O)C3CC3)ccc2C(N)=O)sn1` [Example 34], the IC50 fell in the range of 10 to 100 nM.

Turning to `Cc1cc(Nc2cc(N[C@H](CC3CC3)C(N)=O)ccc2C(N)=O)sn1` [Example 35, (R)-4-(1-amino-3-cyclopropyl-1-oxopropan-2-ylamino)-2-(3-methylisothiazol-5-ylamino)benzamide], the IC50 was 10 to 100 nM.

With `COc1ccc(C[C@@H](Nc2cc(Nc3cc(C)ns3)c(C(N)=O)cc2F)C(N)=O)cc1` [Example 36, (R)-4-(1-amino-3-(4-methoxyphenyl)-1-oxopropan-2-ylamino)-5-fluoro-2-(3-methylisothiazol-5-ylamino)benzamide], the IC50 fell in the range of 10 to 100 nM.

`Cc1cc(Nc2cc(N[C@H](Cc3cccc(F)c3)C(N)=O)c(F)cc2C(N)=O)sn1` [Example 37, (R)-4-(1-amino-3-(3-fluorophenyl)-1-oxopropan-2-ylamino)-5-fluoro-2-(3-methylisothiazol-5-ylamino)benzamide]: the IC50 is 10 to 100 nM.

Take `Cc1cc(Nc2cc(N[C@H](Cc3ccncc3)C(N)=O)c(F)cc2C(N)=O)sn1` [Example 38, (R)-4-(1-amino-1-oxo-3-(pyridin-4-yl)propan-2-ylamino)-5-fluoro-2-(3-methylisothiazol-5-ylamino)benzamide]: the IC50 was 100 to 1000 nM.

Take `Cc1cc(Nc2cc(N[C@H](Cc3cccnc3)C(N)=O)c(F)cc2C(N)=O)sn1` [Example 39, (R)-4-(1-amino-1-oxo-3-(pyridin-3-yl)propan-2-ylamino)-5-fluoro-2-(3-methylisothiazol-5-ylamino)benzamide]: the IC50 lay in the range of 100 to 1000 nM.

Consider `COC[C@@H](Nc1cc(Nc2cc(C)ns2)c(C(N)=O)cc1F)C(N)=O` [Example 40, (R)-4-(1-amino-3-methoxy-1-oxopropan-2-ylamino)-5-fluoro-2-(3-methylisothiazol-5-ylamino)benzamide], for which the IC50 was 10 to 100 nM.

As to `NC(=O)c1cc(F)c(N[C@@H]2CCCC[C@@H]2N)nc1Nc1cccc(-n2nccn2)c1` [Example 41, 2-(3-(2H-1,2,3-triazol-2-yephenylamino)-6-(1R,2S)-2-aminocyclohexylamino)-5-fluoronicotinamide], the concentration for half-maximal inhibition (IC50) was in the range of 1 to 10 nM.

For `NC(=O)c1cc(F)c(N[C@@H]2CCCC[C@@H]2N)nc1Nc1cccc(-n2cncn2)c1` [Example 42, 2-(3-(1H-1,2,4-triazol-1-yl)phenylamino)-6-((1R,2S)-2-aminocyclohexylamino)-5-fluoronicotinamide], the IC50 lay within 1 to 10 nM.

`NC(=O)c1cc(F)c(N[C@@H]2CCCC[C@@H]2N)nc1Nc1cccc(-n2ccnn2)c1` [Example 43]: the IC50 lay within 1 to 10 nM.

For the compound `NC(=O)c1cc(F)c(N[C@@H]2CCCC[C@@H]2N)nc1Nc1cccc(-n2cnnn2)c1` [Example 44, 2-(3-(1H-tetrazol-1-yl)phenylamino)-6-((1R,2S)-2-aminocyclohexylamino)-5-fluoronicotinamide], the IC50 lay in the range of 1 to 10 nM.

Turning to `NC(=O)c1cc(F)c(N[C@@H]2CCCC[C@@H]2N)nc1Nc1cccc(-n2cccn2)c1` [Example 45, 2-(3-(1H-pyrazol-1-yl)phenylamino)-6-((1R,2S)-2-aminocyclohexylamino)-5-fluoronicotinamide], the IC50 was in the range of 1 to 10 nM.

For the compound `NC(=O)c1cc(F)c(N[C@@H]2CCCC[C@@H]2N)nc1Nc1cccc(-n2ccnc2)c1` [Example 46, 2-(3-(1H-imidazol-1-yl)phenylamino)-6-((1R,2S)-2-aminocyclohexylamino)-5-fluoronicotinamide], the IC50 lay within 1 to 10 nM.

As for `NC(=O)c1cc(F)c(N[C@@H]2CCCC[C@@H]2N)nc1Nc1cccc(N2CCCC2)c1` [Example 47, 6-((1R,2S)-2-aminocyclohexylamino)-5-fluoro-2-(3-(pyrrolidin-1-yl)phenylamino)nicotinamide], the IC50 was in the range of 1 to 10 nM.

For `NC(=O)c1cc(F)c(N[C@@H]2CCCC[C@@H]2N)nc1Nc1cccc(N2CCOCC2)c1` [Example 48, 6-((1R,2S)-2-aminocyclohexylamino)-5-fluoro-2-(3-morpholinophenylamino)nicotinamide], the IC50 was 10 to 100 nM.

On to `NC(=O)c1cc(F)c(N[C@@H]2CCCC[C@@H]2N)nc1Nc1ccc(-n2nccn2)cc1` [Example 49, 2-(4-(2H-1,2,3-triazol-2-yephenylamino)-6-(1R,2S)-2-aminocyclohexylamino)-5-fluoronicotinamide], for which the IC50 was 10 to 100 nM.

For `NC(=O)c1cc(F)c(N[C@@H]2CCCC[C@@H]2N)nc1Nc1ccc(-n2cncn2)cc1` [Example 50], the IC50 lay in the range of 1 to 10 nM.

As to `NC(=O)c1cc(F)c(N[C@@H]2CCCC[C@@H]2N)nc1Nc1ccc(-n2ccnc2)cc1` [Example 51, 2-(4-(1H-imidazol-1-yl)phenylamino)-6-((1R,2S)-2-aminocyclohexylamino)-5-fluoronicotinamide], the IC50 fell in the range of 1 to 10 nM.

Take `NC(=O)c1cc(F)c(N[C@@H]2CCCC[C@@H]2N)nc1Nc1ccc(-n2cccn2)cc1` [Example 52, 2-(4-(1H-pyrazol-1-yl)phenylamino)-6-((1R,2S)-2-aminocyclohexylamino)-5-fluoronicotinamide]: the IC50 fell in the range of 1 to 10 nM.

Consider `NC(=O)c1cc(F)c(N[C@@H]2CCCC[C@@H]2N)nc1Nc1ccc(N2CCCC2)cc1` [Example 53, 6-((1R,2S)-2-aminocyclohexylamino)-5-fluoro-2-(4-(pyrrolidin-1-yl)phenylamino)nicotinamide], for which the IC50 is 10 to 100 nM.

`NC(=O)c1cc(F)c(N[C@@H]2CCCC[C@@H]2N)nc1Nc1ccc(N2CCOCC2)cc1` [Example 54, 6-((1R,2S)-2-aminocyclohexylamino)-5-fluoro-2-(4-morpholinophenylamino)nicotinamide]: the IC50 was in the range of 10 to 100 nM.

Regarding `NC(=O)c1cc(F)c(N[C@@H]2CCCC[C@@H]2N)nc1Nc1cccc(-c2ncccn2)c1` [Example 55, 6-((1R,2S)-2-aminocyclohexylamino)-5-fluoro-2-(3-(pyrimidin-2-yl)phenylamino)nicotinamide], the IC50 lay within 1 to 10 nM.

As to `NC(=O)c1cc(F)c(N[C@@H]2CCCC[C@@H]2N)nc1Nc1cccc(-c2ccncn2)c1` [Example 56, 6-((1R,2S)-2-aminocyclohexylamino)-5-fluoro-2-(3-(pyrimidin-4-yl)phenylamino)nicotinamide], the IC50 was 1 to 10 nM.

Consider `NC(=O)c1cc(F)c(N[C@@H]2CCCC[C@@H]2N)nc1Nc1cccc(-c2cncnc2)c1` [Example 57, 6-((1R,2S)-2-aminocyclohexylamino)-5-fluoro-2-(3-(pyrimidin-5-yl)phenylamino)nicotinamide], for which the IC50 was 1 to 10 nM.

For the compound `NC(=O)c1cc(F)c(N[C@@H]2CCCC[C@@H]2N)nc1Nc1ccc(-c2ncccn2)cc1` [Example 58, 6-((1R,2S)-2-aminocyclohexylamino)-5-fluoro-2-(4-(pyrimidin-2-yl)phenylamino)nicotinamide], the IC50 was in the range of 1 to 10 nM.

Regarding `NC(=O)c1cc(F)c(N[C@@H]2CCCC[C@@H]2N)nc1Nc1ccc(-c2ccncn2)cc1` [Example 59, 6-(1R,2S)-2-aminocyclohexylamino)-5-fluoro-2-(4-(pyrimidin-4-yephenylamino)nicotinamide], the IC50 was in the range of 1 to 10 nM.

For `NC(=O)c1cc(F)c(N[C@@H]2CCCC[C@@H]2N)nc1Nc1ccc2ncsc2c1` [Example 60, 6-((1R,2S)-2-aminocyclohexylamino)-2-(benzo[d]thiazol-6-ylamino)-5-fluoronicotinamide], the half-inhibitory concentration (IC50) was below 1 nM.
